# System: MV-4-11 cells
# Assay: Gene expression microarray analysis (Affymetrix PrimeView) and GSEA
# Assay type: cell-based, human
# Design: RFU PODN (11730768_x_at) / Fold change /veh PODN (11730768_x_at) / RFU LINC00158 (11744669_a_at) / Fold change /veh LINC00158 (11744669_a_at) / RFU DUSP10 (11751237_a_at) / Fold change /veh DUSP10 (11751237_a_at) / RFU ID3 (11757404_x_at) / Fold change /veh ID3 (11757404_x_at) / RFU PLEKHG5 (11737974_s_at) / Fold change /veh PLEKHG5 (11737974_s_at) / RFU LRRC4B (11730491_at) / Fold change /veh LRRC4B (11730491_at) / RFU GIMAP4 (11747438_a_at) / Fold change /veh GIMAP4 (11747438_a_at) / RFU KRT8 (11758183_x_at) / Fold change /veh KRT8 (11758183_x_at) / RFU CNN1 (11734310_a_at) / Fold change /veh CNN1 (11734310_a_at) / RFU VPS37D (11726825_at) / Fold change /veh VPS37D (11726825_at) / RFU C10orf10 (11716522_x_at) / Fold change /veh C10orf10 (11716522_x_at) / RFU KIR2DL2 /// KIR2DL4 /// KIR2DL5A /// KIR2DL5B /// KIR2DS1 /// KIR2DS2 /// KIR2DS3 /// KIR2DS4 /// KIR3DL3 /// KIR3DL3 /// KIR3DS1 (11738374_at) / Fold change /veh KIR2DL2 /// KIR2DL4 /// KIR2DL5A /// KIR2DL5B /// KIR2DS1 /// KIR2DS2 /// KIR2DS3 /// KIR2DS4 /// KIR3DL3 /// KIR3DL3 /// KIR3DS1 (11738374_at) / RFU C1QL1 (11718748_at) / Fold change /veh C1QL1 (11718748_at) / RFU TMPRSS4 (11747572_a_at) / Fold change /veh TMPRSS4 (11747572_a_at) / RFU HAMP (11756126_x_at) / Fold change /veh HAMP (11756126_x_at) / RFU RNFT2 (11725882_a_at) / Fold change /veh RNFT2 (11725882_a_at) / RFU NR4A2 (11747474_a_at) / Fold change /veh NR4A2 (11747474_a_at) / RFU ABCC12 (11746883_a_at) / Fold change /veh ABCC12 (11746883_a_at) / RFU TMEM136 (11760407_x_at) / Fold change /veh TMEM136 (11760407_x_at) / RFU CLDN22 /// WWC2 (11732394_at) / Fold change /veh CLDN22 /// WWC2 (11732394_at) / RFU HLA-DPB1 (11760878_x_at) / Fold change /veh HLA-DPB1 (11760878_x_at) / RFU SPINT1 (11716480_a_at) / Fold change /veh SPINT1 (11716480_a_at) / RFU GAP43 (11754022_s_at) / Fold change /veh GAP43 (11754022_s_at) / RFU A4GNT (11735810_at) / Fold change /veh A4GNT (11735810_at) / RFU PRB3 (11715151_x_at) / Fold change /veh PRB3 (11715151_x_at) / RFU TUBB4B (11761932_at) / Fold change /veh TUBB4B (11761932_at) / RFU CAPN14 (11732068_a_at) / Fold change /veh CAPN14 (11732068_a_at) / RFU TMCC2 (11721928_a_at) / Fold change /veh TMCC2 (11721928_a_at) / RFU IRGQ (11745062_a_at) / Fold change /veh IRGQ (11745062_a_at) / RFU FAM174B (11720279_a_at) / Fold change /veh FAM174B (11720279_a_at) / RFU TMPRSS4 (11748680_a_at) / Fold change /veh TMPRSS4 (11748680_a_at) / RFU FAM212B (11763350_a_at) / Fold change /veh FAM212B (11763350_a_at) / RFU PLEKHG5 (11743358_a_at) / Fold change /veh PLEKHG5 (11743358_a_at) / RFU ZSCAN30 (11745921_a_at) / Fold change /veh ZSCAN30 (11745921_a_at) / RFU CMKLR1 (11741424_a_at) / Fold change /veh CMKLR1 (11741424_a_at) / RFU LOC101060620 /// MAPK8IP1 (11723275_at) / Fold change /veh LOC101060620 /// MAPK8IP1 (11723275_at) / RFU SPTSSB (11747773_x_at) / Fold change /veh SPTSSB (11747773_x_at) / RFU PRSS12 (11739890_at) / Fold change /veh PRSS12 (11739890_at) / RFU BIN1 (11741810_x_at) / Fold change /veh BIN1 (11741810_x_at) / RFU WNT11 (11732464_a_at) / Fold change /veh WNT11 (11732464_a_at) / RFU C10orf10 (11716521_a_at) / Fold change /veh C10orf10 (11716521_a_at) / RFU C5orf56 (11738089_at) / Fold change /veh C5orf56 (11738089_at) / RFU CYB561 (11721691_x_at) / Fold change /veh CYB561 (11721691_x_at) / RFU ANKRD19P (11752326_a_at) / Fold change /veh ANKRD19P (11752326_a_at) / RFU OR2T12 /// OR2T33 /// OR2T8 (11738714_s_at) / Fold change /veh OR2T12 /// OR2T33 /// OR2T8 (11738714_s_at) / RFU VCAN (11748164_a_at) / Fold change /veh VCAN (11748164_a_at) / RFU JSRP1 (11732532_at) / Fold change /veh JSRP1 (11732532_at) / RFU KRTAP10-11 (11738290_x_at) / Fold change /veh KRTAP10-11 (11738290_x_at) / RFU MYO3A (11730013_a_at) / Fold change /veh MYO3A (11730013_a_at) / RFU EBF3 (11725865_a_at) / Fold change /veh EBF3 (11725865_a_at) / RFU CAMK2N1 (11719241_x_at) / Fold change /veh CAMK2N1 (11719241_x_at) / RFU C5orf56 (11738088_a_at) / Fold change /veh C5orf56 (11738088_a_at) / RFU OLFML3 (11715873_a_at) / Fold change /veh OLFML3 (11715873_a_at) / RFU LOC100653217 /// NTM (11731650_a_at) / Fold change /veh LOC100653217 /// NTM (11731650_a_at) / RFU MAPK11 (11762145_a_at) / Fold change /veh MAPK11 (11762145_a_at) / RFU FIZ1 (11724087_x_at) / Fold change /veh FIZ1 (11724087_x_at) / RFU OASL (11726364_x_at) / Fold change /veh OASL (11726364_x_at) / RFU SOX15 (11748057_x_at) / Fold change /veh SOX15 (11748057_x_at) / RFU CD79A (11719716_a_at) / Fold change /veh CD79A (11719716_a_at) / RFU HIST1H1D (11736915_at) / Fold change /veh HIST1H1D (11736915_at) / RFU CASKIN2 (11723855_a_at) / Fold change /veh CASKIN2 (11723855_a_at) / RFU LOC730098 (11760151_x_at) / Fold change /veh LOC730098 (11760151_x_at) / RFU OR4N2 (11742367_at) / Fold change /veh OR4N2 (11742367_at) / RFU PRRT2 (11749266_a_at) / Fold change /veh PRRT2 (11749266_a_at) / RFU SNX32 (11753110_a_at) / Fold change /veh SNX32 (11753110_a_at) / RFU CDHR5 (11726645_a_at) / Fold change /veh CDHR5 (11726645_a_at) / RFU RCAN1 (11760418_a_at) / Fold change /veh RCAN1 (11760418_a_at) / RFU FAM167A (11723789_a_at) / Fold change /veh FAM167A (11723789_a_at) / RFU FAM26E (11764081_at) / Fold change /veh FAM26E (11764081_at) / RFU ISYNA1 (11749810_s_at) / Fold change /veh ISYNA1 (11749810_s_at) / RFU ACY1 (11761880_at) / Fold change /veh ACY1 (11761880_at) / RFU 11764098_at / Fold change /veh 11764098_at / RFU SAMD14 (11745864_x_at) / Fold change /veh SAMD14 (11745864_x_at) / RFU NPB (11741838_a_at) / Fold change /veh NPB (11741838_a_at) / RFU TMPRSS6 (11731388_a_at) / Fold change /veh TMPRSS6 (11731388_a_at) / RFU KRTAP10-2 (11738614_at) / Fold change /veh KRTAP10-2 (11738614_at) / RFU ARHGAP8 /// PRR5-ARHGAP8 (11727945_x_at) / Fold change /veh ARHGAP8 /// PRR5-ARHGAP8 (11727945_x_at) / RFU KRTAP5-7 /// NADSYN1 (11734609_at) / Fold change /veh KRTAP5-7 /// NADSYN1 (11734609_at) / RFU RASL12 (11751679_a_at) / Fold change /veh RASL12 (11751679_a_at) / RFU CDKN2B (11736163_a_at) / Fold change /veh CDKN2B (11736163_a_at) / RFU PRF1 (11729649_at) / Fold change /veh PRF1 (11729649_at) / RFU, ZNF638 /// ZNF638-IT1 / Fold change vs veh, ZNF638 /// ZNF638-IT1 / RFU, PANK3 / Fold change vs veh, PANK3 / RFU, SH3YL1 / Fold change vs veh, SH3YL1 / RFU, ZEB2 / Fold change vs veh, ZEB2 / RFU, NRIP1 / Fold change vs veh, NRIP1 / RFU, PTTG1IP / Fold change vs veh, PTTG1IP / RFU, CAPN2 / Fold change vs veh, CAPN2 / RFU, MED14 / Fold change vs veh, MED14 / RFU, SNORA58 / Fold change vs veh, SNORA58 / RFU, C1orf63 / Fold change vs veh, C1orf63 / RFU, LRRFIP1 / Fold change vs veh, LRRFIP1 / RFU, NDUFAF7 / Fold change vs veh, NDUFAF7 / RFU, SLC12A2 / Fold change vs veh, SLC12A2 / RFU, IBTK / Fold change vs veh, IBTK / RFU, ESF1 / Fold change vs veh, ESF1 / Fold change vs veh, TMEM50B / RFU, TAOK1 / Fold change vs veh, TAOK1 / RFU, ACBD3 / Fold change vs veh, ACBD3 / RFU, TMA16 / Fold change vs veh, TMA16 / RFU, RWDD3 / Fold change vs veh, RWDD3 / RFU, BCAT1 / Fold change vs veh, BCAT1 / RFU, EDEM3 / Fold change vs veh, EDEM3 / RFU, TMEM33 / Fold change vs veh, TMEM33 / RFU, WDR75 / Fold change vs veh, WDR75 / RFU, AHCTF1 / Fold change vs veh, AHCTF1 / RFU, TFRC / Fold change vs veh, TFRC / RFU, ZDHHC17 / Fold change vs veh, ZDHHC17 / RFU, NOM1 / Fold change vs veh, NOM1 / RFU, ARL8B / Fold change vs veh, ARL8B / RFU, ZBTB11 / Fold change vs veh, ZBTB11 / RFU, TAMM41 / Fold change vs veh, TAMM41 / RFU, KIAA1704 /// LOC100996395 / Fold change vs veh, KIAA1704 /// LOC100996395 / RFU, ING1 / Fold change vs veh, ING1 / RFU, TRMT61B / Fold change vs veh, TRMT61B / RFU, FUBP3 / Fold change vs veh, FUBP3 / RFU, TP53 / Fold change vs veh, TP53 / RFU, TNKS2 / Fold change vs veh, TNKS2 / RFU, ZFP14 / Fold change vs veh, ZFP14 / RFU, ACTR2 / Fold change vs veh, ACTR2 / RFU, PPP3R1 / Fold change vs veh, PPP3R1 / RFU, PIK3R1 / Fold change vs veh, PIK3R1 / RFU, HNRNPA1 / Fold change vs veh, HNRNPA1 / RFU, RNF170 / Fold change vs veh, RNF170 / RFU, ZNF28 / Fold change vs veh, ZNF28 / RFU, RNGTT / Fold change vs veh, RNGTT / RFU, OGT / Fold change vs veh, OGT / RFU, BRD1 / Fold change vs veh, BRD1 / RFU, MARS / Fold change vs veh, MARS / RFU, ZNF655 / Fold change vs veh, ZNF655 / RFU, FAHD1 / Fold change vs veh, FAHD1 / RFU, BDP1 / Fold change vs veh, BDP1 / RFU, LRRCC1 / Fold change vs veh, LRRCC1 / RFU, ARID1A / Fold change vs veh, ARID1A / RFU, ZNF146 / Fold change vs veh, ZNF146 / RFU, ZNF330 / Fold change vs veh, ZNF330 / RFU, GPN3 / Fold change vs veh, GPN3 / RFU, C9orf123 / Fold change vs veh, C9orf123 / RFU, N4BP2L2 / Fold change vs veh, N4BP2L2 / RFU, ARFIP1 / Fold change vs veh, ARFIP1 / RFU, FAM179B / Fold change vs veh, FAM179B / RFU, BCL10 / Fold change vs veh, BCL10 / RFU, UHRF1BP1L / Fold change vs veh, UHRF1BP1L / RFU, BET1 / Fold change vs veh, BET1 / RFU, CNOT2 / Fold change vs veh, CNOT2 / RFU, ZNF268 / Fold change vs veh, ZNF268 / Fold change vs veh, ZNF507 / RFU, DGCR2 / Fold change vs veh, DGCR2 / RFU, WDSUB1 / Fold change vs veh, WDSUB1 / Fold change vs veh, HSP90B1 /// MIR3652 / RFU, ADSS / Fold change vs veh, ADSS / RFU, GK / Fold change vs veh, GK / RFU, ZNF148 / Fold change vs veh, ZNF148 / RFU, TAF9 / Fold change vs veh, TAF9 / RFU, SLC1A5 / Fold change vs veh, SLC1A5 / RFU, SLMO2 / Fold change vs veh, SLMO2 / RFU, ABCC4 / Fold change vs veh, ABCC4 / RFU, LOC101060439 /// RAP1B / Fold change vs veh, LOC101060439 /// RAP1B / RFU, RFX7 / Fold change vs veh, RFX7 / RFU, GTPBP10 / Fold change vs veh, GTPBP10 / RFU, CNEP1R1 / Fold change vs veh, CNEP1R1 / RFU, BIVM-ERCC5 /// ERCC5 / Fold change vs veh, BIVM-ERCC5 /// ERCC5 / RFU, ILF3 / Fold change vs veh, ILF3 / RFU 11762660_at / Fold change /veh 11762660_at / RFU VCAN (11757783_s_at) / Fold change /veh VCAN (11757783_s_at) / RFU DDX43 (11728927_at) / Fold change /veh DDX43 (11728927_at) / RFU KRT8 (11758188_x_at) / Fold change /veh KRT8 (11758188_x_at) / RFU NKD1 (11759106_at) / Fold change /veh NKD1 (11759106_at) / RFU SRD5A1 (11742802_a_at) / Fold change /veh SRD5A1 (11742802_a_at) / RFU TPSAB1 /// TPSB2 (11721975_s_at) / Fold change /veh TPSAB1 /// TPSB2 (11721975_s_at) / RFU GSTM3 (11746129_a_at) / Fold change /veh GSTM3 (11746129_a_at) / RFU IL23R (11737362_x_at) / Fold change /veh IL23R (11737362_x_at) / RFU TMEM51 (11727254_a_at) / Fold change /veh TMEM51 (11727254_a_at) / RFU PIWIL2 (11732686_x_at) / Fold change /veh PIWIL2 (11732686_x_at) / RFU ORM1 (11744905_x_at) / Fold change /veh ORM1 (11744905_x_at) / RFU CCDC152 (11743942_at) / Fold change /veh CCDC152 (11743942_at) / RFU ECM1 (11717891_a_at) / Fold change /veh ECM1 (11717891_a_at) / RFU IL23R (11748794_a_at) / Fold change /veh IL23R (11748794_a_at) / RFU TNFAIP8L3 (11732012_x_at) / Fold change /veh TNFAIP8L3 (11732012_x_at) / RFU MBOAT4 (11741988_at) / Fold change /veh MBOAT4 (11741988_at) / RFU 11764193_at / Fold change /veh 11764193_at / RFU TMEM53 (11763286_at) / Fold change /veh TMEM53 (11763286_at) / RFU MAGEB2 (11727129_at) / Fold change /veh MAGEB2 (11727129_at) / RFU TMEM200A (11744735_a_at) / Fold change /veh TMEM200A (11744735_a_at) / RFU CCDC152 (11751479_a_at) / Fold change /veh CCDC152 (11751479_a_at) / RFU FAM211A (11726209_a_at) / Fold change /veh FAM211A (11726209_a_at) / RFU RGS16 (11746705_a_at) / Fold change /veh RGS16 (11746705_a_at) / RFU VCAN (11755009_s_at) / Fold change /veh VCAN (11755009_s_at) / RFU RHOB (11743442_s_at) / Fold change /veh RHOB (11743442_s_at) / RFU RGS16 (11720943_a_at) / Fold change /veh RGS16 (11720943_a_at) / RFU RGS16 (11720944_at) / Fold change /veh RGS16 (11720944_at) / RFU, VPS4B / Fold change vs veh, VPS4B / RFU, CREB1 / Fold change vs veh, CREB1 / RFU, DNAJC13 / Fold change vs veh, DNAJC13 / RFU, GNAQ / Fold change vs veh, GNAQ / RFU, CDK5R1 / Fold change vs veh, CDK5R1 / RFU, ZRANB3 / Fold change vs veh, ZRANB3 / RFU, CUL4A / Fold change vs veh, CUL4A / RFU, CCNY / Fold change vs veh, CCNY / RFU, UFL1 / Fold change vs veh, UFL1 / RFU, COG3 / Fold change vs veh, COG3 / RFU, DIAPH2 / Fold change vs veh, DIAPH2 / RFU, SKA2 / Fold change vs veh, SKA2 / RFU, AFF3 / Fold change vs veh, AFF3 / RFU, LMF1 / Fold change vs veh, LMF1 / RFU, IPO11 / Fold change vs veh, IPO11 / RFU, DFFB / Fold change vs veh, DFFB / RFU, FOXP1 / Fold change vs veh, FOXP1 / RFU, CARD8 / Fold change vs veh, CARD8 / RFU, STRN3 / Fold change vs veh, STRN3 / RFU, ADK / Fold change vs veh, ADK / RFU, RASSF2 / Fold change vs veh, RASSF2 / RFU, WIPF1 / Fold change vs veh, WIPF1 / RFU, LARP1B / Fold change vs veh, LARP1B / RFU, RASA1 / Fold change vs veh, RASA1 / RFU, RB1 / Fold change vs veh, RB1 / RFU, PPFIA1 / Fold change vs veh, PPFIA1 / RFU, MAT2A / Fold change vs veh, MAT2A / RFU, CCT5 / Fold change vs veh, CCT5 / RFU, WDR92 / Fold change vs veh, WDR92 / RFU, CUX1 / Fold change vs veh, CUX1 / RFU, TTC7A / Fold change vs veh, TTC7A / RFU, TMEM135 / Fold change vs veh, TMEM135 / RFU, DEPTOR / Fold change vs veh, DEPTOR / RFU, CPM / Fold change vs veh, CPM / RFU, DNAJB6 / Fold change vs veh, DNAJB6 / RFU, CACNA2D3 / Fold change vs veh, CACNA2D3 / RFU, DTX4 / Fold change vs veh, DTX4 / RFU, TFCP2 / Fold change vs veh, TFCP2 / RFU, GMCL1 /// GMCL1P1 / Fold change vs veh, GMCL1 /// GMCL1P1 / RFU, AEBP2 / Fold change vs veh, AEBP2 / RFU, SNHG1 /// SNORD22 /// SNORD25 /// SNORD26 /// SNORD27 /// SNORD28 /// SNORD29 /// SNORD31 / Fold change vs veh, SNHG1 /// SNORD22 /// SNORD25 /// SNORD26 /// SNORD27 /// SNORD28 /// SNORD29 /// SNORD31 / Fold change (Aza/veh), C12orf56 (ProbeSet 11735607_a_at) / Fold change (ACY-1035/veh), C12orf56 (ProbeSet 11735607_a_at) / Fold change (Aza/veh), FGFR1OP (ProbeSet 11751329_s_at) / Fold change (ACY-1035/veh), FGFR1OP (ProbeSet 11751329_s_at) / Fold change (Aza/veh), VPS36 (ProbeSet 11739960_a_at) / Fold change (ACY-1035/veh), VPS36 (ProbeSet 11739960_a_at) / RFU SYPL1 (11715823_x_at) / Fold change /veh SYPL1 (11715823_x_at) / RFU IGFBP7 (11715501_s_at) / Fold change /veh IGFBP7 (11715501_s_at) / RFU REEP3 (11722064_at) / Fold change /veh REEP3 (11722064_at) / RFU IGLL1 (11728026_x_at) / Fold change /veh IGLL1 (11728026_x_at): dose or concentration left out as unconfirmed
# Conditions: MV-4-11 cells, 48 hours
smiles,measurement,value
Nc1ccc(-c2cccs2)cc1NC(=O)c1ccc2c(c1)cc(C1CC1)n2CCN1CCOCC1 [ACY-1035],Fold change /veh SAMD14 (11745864_x_at),1.01
